Assay results taken from PubChem BioAssay (NCI).
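Grown in 96-well plates, cells were treated for 48 hours with each compound at five concentrations. Insufficient inhibition: endpoint recorded as highest concentration tested. TGI denotes the concentration required for complete inhibition of growth.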

Legend:
Assay in all cases: inhibition of tumour cell growth, NCI panel, 48 h
MOLT-4 leukemia = test system: MOLT-4 leukemia
DU-145 prostate = test system: DU-145 prostate
CCRF-CEM leukemia = test system: CCRF-CEM leukemia
COLO 205 colon = test system: COLO 205 colon
A498 renal = test system: A498 renal
M14 melanoma = test system: M14 melanoma
OVCAR-4 ovarian = test system: OVCAR-4 ovarian
OVCAR-5 ovarian = test system: OVCAR-5 ovarian
HS 578T breast = test system: HS 578T breast
BT-549 breast = test system: BT-549 breast
NCI-H23 lung = test system: NCI-H23 lung
SK-MEL-5 melanoma = test system: SK-MEL-5 melanoma
U251 CNS = test system: U251 CNS
HOP-62 NSCLC = test system: HOP-62 NSCLC
786-0 renal = test system: 786-0 renal
SF-268 CNS = test system: SF-268 CNS
NCI-H522 lung = test system: NCI-H522 lung
UACC-62 melanoma = test system: UACC-62 melanoma
NCI/ADR-RES ovarian = test system: NCI/ADR-RES ovarian
RPMI-8226 leukemia = test system: RPMI-8226 leukemia

SMILES	TGI (MOLT-4 leukemia)	TGI (DU-145 prostate)	TGI (CCRF-CEM leukemia)	TGI (COLO 205 colon)	TGI (A498 renal)	TGI (M14 melanoma)	TGI (OVCAR-4 ovarian)	TGI (OVCAR-5 ovarian)	TGI (HS 578T breast)	TGI (BT-549 breast)	TGI (NCI-H23 lung)	TGI (SK-MEL-5 melanoma)	TGI (U251 CNS)	TGI (HOP-62 NSCLC)	TGI (786-0 renal)	TGI (SF-268 CNS)	TGI (NCI-H522 lung)	TGI (UACC-62 melanoma)	TGI (NCI/ADR-RES ovarian)	TGI (RPMI-8226 leukemia)
COc1c2cc([N+](=O)[O-])cc1CN(C(=O)C(F)(F)F)CCOCCN(C(=O)C(F)(F)F)C2	> 100 µM	> 100 µM	> 100 µM	> 100 µM	> 100 µM	> 100 µM	> 100 µM	> 100 µM	> 100 µM	> 100 µM	> 100 µM	> 100 µM	> 100 µM	> 100 µM	> 100 µM	> 100 µM	> 100 µM	> 100 µM		
CCCCCCCCCC(=O)NC(CCC(=O)N(CCNC(=O)c1nc(-c2ccccc2)oc1-c1ccccc1)Cc1ccccc1)C(=O)O (stereo not given)	> 100 µM	43.7 µM		36.8 µM	39.7 µM	28.3 µM	75.2 µM	31.7 µM		33.5 µM	33.9 µM	29.7 µM	35.8 µM	30.5 µM	32 µM	34.6 µM	34.3 µM		33.3 µM	79 µM
COc1cc2c(c(OC)c1OC)C(=O)[C@@H](O)[C@H]2NC(N)=O	> 100 µM	> 100 µM	> 100 µM	> 100 µM		> 100 µM		> 100 µM	> 100 µM		> 100 µM	> 100 µM	> 100 µM	> 100 µM	> 100 µM	> 100 µM	> 100 µM	> 100 µM	> 100 µM	> 100 µM
COc1ccc2cc(CN3CCC(C4CCN(Cc5ccc6cc(OC)ccc6c5)CC4)CC3)ccc2c1	5.11 µM	41.6 µM	4.33 µM	2.98 µM	22.2 µM		18.2 µM	> 76.7 µM	11.8 µM		35.9 µM	3.12 µM	8.41 µM	22.7 µM	4.23 µM	10.8 µM	6.56 µM	3.74 µM	25.9 µM	4.19 µM
O=C(Cn1c(C(=O)/C=C/c2ccc(Cl)cc2)nc2ccccc21)c1ccc(Cl)cc1	14.5 µM	56.1 µM	8.45 µM	36.1 µM	> 100 µM	43.6 µM	50.7 µM	64.1 µM	29.1 µM	55.2 µM	77.6 µM	29.3 µM	33.4 µM	41.6 µM	66.8 µM	> 100 µM		33.7 µM	63 µM	49.7 µM
CCOC(=O)[C@@H]1ON2O[C@@H](OC3CCCCC3c3ccccc3)C[C@H]3OC(=O)[C@@H]1C32 (stereo not given in full)	> 100 µM	> 100 µM	21.9 µM	> 100 µM	> 100 µM	> 100 µM		> 100 µM	> 100 µM		> 100 µM	> 100 µM	> 100 µM	> 100 µM	> 100 µM	> 100 µM	> 100 µM	> 100 µM	> 100 µM	> 100 µM
COC1(OC)N=C(N)C2(C#N)C(C)=C3NCN(C)N=C3C12C#N (stereo not given)		> 100 µM		> 100 µM	> 100 µM	> 100 µM		> 100 µM	> 100 µM		> 100 µM	> 100 µM	> 100 µM	> 100 µM	> 100 µM	> 100 µM	> 100 µM	> 100 µM	> 100 µM	> 100 µM
Cc1cc2c(nn1)CCc1c-2no[n+]1[O-]	> 100 µM		> 100 µM	> 100 µM		> 100 µM	> 100 µM	> 100 µM	> 100 µM	> 100 µM	> 100 µM	> 100 µM	> 100 µM	> 100 µM	> 100 µM	> 100 µM	> 100 µM	> 100 µM	> 100 µM	> 100 µM
Cc1c(NC(=O)CSC(=S)N(C)C)c(=O)n(-c2ccccc2)n1C	> 100 µM	> 100 µM	> 100 µM	> 100 µM		> 100 µM	> 100 µM	> 100 µM	> 100 µM	> 100 µM	> 100 µM	> 100 µM	> 100 µM	> 100 µM	> 100 µM	> 100 µM	> 100 µM		> 100 µM	> 100 µM
Cc1ccc2c(c1)C=CC1(O2)N(c2ccccc2)C(=S)OC1(C)C (stereo not given)	> 100 µM	> 100 µM	> 100 µM	> 100 µM	> 100 µM	> 100 µM	> 100 µM	> 100 µM	> 100 µM	> 100 µM	> 100 µM	> 100 µM	> 100 µM	> 100 µM	> 100 µM	> 100 µM		> 100 µM	> 100 µM	> 100 µM
O=C(/C=C/c1ccccc1)c1cc(C(=O)/C=C/c2ccccc2)c(O)cc1O	> 100 µM			> 100 µM	90.7 µM	> 100 µM		> 100 µM	83.7 µM	> 100 µM	> 100 µM	> 100 µM		> 100 µM	> 100 µM			> 100 µM		> 100 µM
CC(=O)N1C(=O)c2cc3ccccc3cc21		> 100 µM	> 100 µM	> 100 µM	89.4 µM	> 100 µM		> 100 µM	> 100 µM		> 100 µM	> 100 µM	> 100 µM	> 100 µM	> 100 µM	> 100 µM		> 100 µM	> 100 µM	> 100 µM
C=C1CCC2[C@](C)(CCC[C@]2(C)C(=O)O)[C@@H]1CCc1ccoc1 (stereo not given in full)	> 100 µM	> 100 µM	> 100 µM	33 µM	> 100 µM	> 100 µM	> 100 µM	> 100 µM	80.3 µM		50.7 µM	84.8 µM		> 100 µM	> 100 µM	> 100 µM	> 100 µM	> 100 µM	98.2 µM	> 100 µM
